Test [1] in a line: Antiinflammatory activity in FMLP/CB-induced human neutrophils assessed as inhibition of elastase release. It counts as functional, cell-based. The note with it: Neutrophil.
Test [2] in a line: Antiinflammatory activity in FMLP/CB-induced human neutrophils assessed as inhibition of superoxide anion generation relative to control. It counts as functional, Neutrophil.
The nature of test [3]: Antiinflammatory activity in FMLP/CB-induced human neutrophils assessed as inhibition of elastase release relative to control. Type of test: functional, Neutrophil.
Test [4] in a line: Antiinflammatory activity in FMLP/CB-induced human neutrophils assessed as inhibition of superoxide anion generation. Type of test: functional, cell-based. The note with it: Neutrophil.

We go through three molecules from ChEMBL document CHEMBL3608224, “Total synthesis of cordatanine, structural reassignment of drymaritin, and anti-inflammatory activity of synthetic precursors” (Bioorg Med Chem Lett, 2015).

Values after ≈ are worked out from the molar mass of the structure shown. Bounds are passed on as bounds.

What is called IC50 is the concentration needed to halve the response being measured. As to `CCOC(=O)c1nccc2c1[nH]c1ccccc12`, the values for the half-inhibitory concentration (IC50) in test [1] and in test [4] were 6.29 µg/mL (≈ 26.2 µM) and 4.87 µg/mL (≈ 20.3 µM), respectively. Moreover, the entries for the “inhibition (INH)” value in test [2] and in test [3] were 93.92% and 70.75%, respectively.

As for `COc1cc(=O)n2c3ccccc3c3ccnc1c32`, the 50% inhibitory concentration (IC50) in test [1] and in test [4] was above 10 µg/mL each time. Also, the “inhibition (INH)” value in test [2] was found to be 29.5%; in test [3] it was 8.2%.

`CCOC(=O)CC(=O)c1nccc2c1[nH]c1ccccc12`: the IC50 in test [1] and in test [4] was above 10 µg/mL in each case. The entries for the “inhibition (INH)” value in test [2] and in test [3] were 10.48% and 3.06%, respectively.
